According to US9321718B2 (CHROMA THERAPEUTICS LTD., priority 2010, dated 2016):
Read-outs that look alike come from different tables or passages of the source.

How the values were obtained:
[1] = molecular target: T1, human recombinant his-tagged HSP90α (Homo sapiens, UniProt P07900); assay: HSP90 enzyme assay (HTRF, competition with biotinylated Geldanamycin); assay type: binding; conditions: IC50 range; read-out: Enzyme Assay
T1 construct: purchased Prospec Technogene #HSP90
Source text: An HTRF (homogeneous time resolved fluorescence) assay is used to measure the interaction of the compounds with HSP90. The assay measures binding of biotinylated Geldanamycin (bio-GM; Biomol, #EI-341, lot: A9199a) to human recombinant his-tagged HSP90α (HSP90; Prospec Technogene, #HSP90, lot: 260HSP9001). A signal is generated by fluorescence resonance energy transfer from an Europium-cryptate labeled anti-his antibody (anti-his-K; Cisbio International, #61HISKLA, lot: 33V) via the HSP90-GM-biotin complex to a fluorescence acceptor (allophycocyanin) linked to streptavidin (SA-XL; Cisbio International, #610SAXLB, lot: 089).
Unlabeled GM or compounds compete with the bio-GM for binding to HSP90 resulting in reduced fluorescence energy transfer/assay signal.
A preformed (1 hour incubation) complex of HSP90 with the anti-his-K is added to the compound solution in a 384 well microplate (Corning, #3710) and incubated for 15 minutes. A preformed (1 hour incubation) complex of bio-GM with the SA-XL is added to the wells and incubated for 20 hours. All incubations are performed at room temperature. The final assay volume is 50 μl/well. The final concentrations in the assay are: 50 mM Hepes pH 7.3, 50 mM NaCl, 100 mM KF, 1 mM EDTA, 1 mM DTT, 0.1% Triton-X-100, […] HSP90, 40 nM SA-XL, 40 nM bio-GM. Test compounds are dissolved in DMSO, prediluted in assay buffer and tested at a final concentration between 5000 nM and 0.3 nM. The resulting DMSO concentration is 0.5% and included in all controls. High controls are without test compounds, low controls without test compounds, without HSP90 and without bio-GM. As a reference inhibitor unlabeled GM is used in the same concentrations as the test compounds.
Inhibition is calculated compared to the assay controls using an Excel spreadsheet (Microsoft). IC50 values are calculated by non-linear least squares fitting to the standard dose-response model using GraphPad Prism (GraphPad Software Inc).

[2] = tested on: TNFα release from LPS stimulated THP-1 (hCE-1 +ve) cells; assay: LPS-stimulation of THP-1 cells (TNF-α release); assay type: cell-based, human; conditions: IC50 range, TNF-α after LPS 1 μg/ml, 6 hours, read-out: THP-1 Assay
Description: THP-1 cells are plated in […] at a density of 4×10^4 cells/well in V-bottomed 96 well tissue culture treated plates and incubated at 37° C. in 5% CO2 for 16 hours. 2 Hours after the addition of the inhibitor in 100 μl of tissue culture media, the cells are stimulated with LPS (E. Coli strain 005:B5, Sigma) at a final concentration of 1 μg/ml and incubated at 37° C. in 5% CO2 for 6 hours. TNF-α levels are measured from cell-free supernatants by sandwich ELISA (R&D Systems #QTA00B).

Compound	IC50 [1] [nM]	IC50 ([2]; Homo sapiens, THP-1) [nM]	IC50 [2] [nM]
CC(C)C[C@@H](NC1CCN(C(=O)c2cc(C(C)C)c(O)cc2O)CC1)C(=O)OC(C)(C)C [Example 19, tert-butyl N-(1-{[2,4-dihydroxy-5-(propan-2-yl)phenyl]carbonyl}piperidin-4-yl)-D-leucinate]	< 100	> 1000	
CC(C)c1cc(C(=O)N2CCC(N[C@@H](COC(C)(C)C)C(=O)OC(C)(C)C)CC2)c(O)cc1O [Example 11, tert-butyl O-tert-butyl-N-(1-{[2,4-dihydroxy-5-(propan-2-yl)phenyl]carbonyl}piperidin-4-yl)-L-serinate]	< 100	> 1000	
CC(C)c1cc(C(=O)N2CCC(CN[C@H](C(=O)OC3CCCC3)C3CCCCC3)CC2)c(O)cc1O [Example 30, cyclopentyl (2S)-cyclohexyl{[(1-{[2,4-dihydroxy-5-(propan-2-yl)phenyl]carbonyl}piperidin-4-yl)methyl]amino}ethanoate]	100 to 1000	> 1000	
cyclopentyl N-[(1-{[2,4-dihydroxy-5-(propan-2-yl)phenyl]carbonyl}piperidin-4-yl)methyl]-L-valinate [Example 29]	< 100		> 1000
CC(C)C[C@H](NCC1CCN(C(=O)c2cc(C(C)C)c(O)cc2O)CC1)C(=O)OC(C)(C)C [Example 24, tert-butyl N-[(1-{[2,4-dihydroxy-5-(propan-2-yl)phenyl]carbonyl}piperidin-4-yl)methyl]-L-leucinate]	< 100	> 1000	
CC(C)c1cc(C(=O)N2CCC(CN[C@@H](CO)C(=O)OC(C)(C)C)CC2)c(O)cc1O [Example 37, tert-butyl N-[(1-{[2,4-dihydroxy-5-(propan-2-yl)phenyl]carbonyl}piperidin-4-yl)methyl]-L-serinate]	< 100	100 to 1000	
CC(C)C[C@H](NC1CCN(C(=O)c2cc(C(C)C)c(O)cc2O)CC1)C(=O)OC(C)(C)C [Example 6, tert-butyl N-(1-{[2,4-dihydroxy-5-(propan-2-yl)phenyl]carbonyl}piperidin-4-yl)-L-leucinate]	< 100	> 1000	
CC(C)c1cc(C(=O)N2CCC(CCN[C@H](C(=O)OC3CCCC3)C(C)C)CC2)c(O)cc1O [Example 46, cyclopentyl N-[2-(1-{[2,4-dihydroxy-5-(propan-2-yl)phenyl]carbonyl}piperidin-4-yl)ethyl]-L-valinate]	< 100	> 1000	
CC(C)c1cc(C(=O)N2CCC(CCN[C@@H](CO)C(=O)OC3CCCC3)CC2)c(O)cc1O [Example 47, cyclopentyl N-[2-(1-{[2,4-dihydroxy-5-(propan-2-yl)phenyl]carbonyl}piperidin-4-yl)ethyl]-L-serinate]	< 100	100 to 1000	
CC(C)c1cc(C(=O)N2CCC(N[C@@H](Cc3ccccc3)C(=O)OC(C)(C)C)CC2)c(O)cc1O [Example 16, tert-butyl N-(1-{[2,4-dihydroxy-5-(propan-2-yl)phenyl]carbonyl}piperidin-4-yl)-L-phenylalaninate]	< 100	> 1000	
CC(C)C[C@@H](NCC1CCN(C(=O)c2cc(C(C)C)c(O)cc2O)CC1)C(=O)OC(C)(C)C [Example 27, tert-butyl N-[(1-{[2,4-dihydroxy-5-(propan-2-yl)phenyl]carbonyl}piperidin-4-yl)methyl]-D-leucinate]	< 100	> 1000	
CC(C)C[C@H](NCCCNCC1CCN(C(=O)c2cc(C(C)C)c(O)cc2O)CC1)C(=O)OC1CCCC1 [Example 126]	< 100	> 1000	
CC(C)c1cc(C(=O)N2CCC(N[C@@H](CO)C(=O)OC3CCCC3)CC2)c(O)cc1O [Example 18, cyclopentyl N-(1-{[2,4-dihydroxy-5-(propan-2-yl)phenyl]carbonyl}piperidin-4-yl)-L-serinate]	< 100	100 to 1000	
CC(C)c1cc(C(=O)N2CCC(CCN[C@@H](C)C(=O)OC3CCCC3)CC2)c(O)cc1O [Example 39, cyclopentyl N-[2-(1-{[2,4-dihydroxy-5-(propan-2-yl)phenyl]carbonyl}piperidin-4-yl)ethyl]-L-alaninate]	< 100	< 100	
CC(C)C[C@H](NCCC1CCN(C(=O)c2cc(C(C)C)c(O)cc2O)CC1)C(=O)OC(C)(C)C [Example 42, tert-butyl N-[2-(1-{[2,4-dihydroxy-5-(propan-2-yl)phenyl]carbonyl}piperidin-4-yl)ethyl]-L-leucinate]	< 100	100 to 1000	
CC(C)C[C@H](NC1CCCN(C(=O)c2cc(C(C)C)c(O)cc2O)C1)C(=O)OC1CCCC1 (stereo partly drawn) [Example 7, cyclopentyl N-(1-{[2,4-dihydroxy-5-(propan-2-yl)phenyl]carbonyl}piperidin-3-yl)-L-leucinate]	100 to 1000	> 1000	
CC(C)c1cc(C(=O)N2CCC(CN[C@@H](C)C(=O)OC(C)(C)C)CC2)c(O)cc1O [Example 26, tert-butyl N-[(1-{[2,4-dihydroxy-5-(propan-2-yl)phenyl]carbonyl}piperidin-4-yl)methyl]-L-alaninate]	< 100	> 1000	
CC(C)c1cc(C(=O)N2CCC(N[C@@H](C)C(=O)OC(C)(C)C)CC2)c(O)cc1O [Example 8, tert-butyl N-(1-{[2,4-dihydroxy-5-(propan-2-yl)phenyl]carbonyl}piperidin-4-yl)-L-alaninate]	< 100	> 1000	
CC(C)c1cc(C(=O)N2CCC(CCN[C@H](C(=O)OC3CCCC3)C3CCCCC3)CC2)c(O)cc1O [Example 48, cyclopentyl (2S)-cyclohexyl{[2-(1-{[2,4-dihydroxy-5-(propan-2-yl)phenyl]carbonyl}piperidin-4-yl)ethyl]amino}ethanoate]	100 to 1000	> 1000	
CC(C)c1cc(C(=O)N2CCC(CN[C@@H](COC(C)(C)C)C(=O)OC(C)(C)C)CC2)c(O)cc1O [Example 35, tert-butyl O-tert-butyl-N-[(1-{[2,4-dihydroxy-5-(propan-2-yl)phenyl]carbonyl}piperidin-4-yl)methyl]-L-serinate]	< 100	> 1000	
CC(C)c1cc(C(=O)N2CCC(CCN[C@H](C(=O)OC3CCCC3)c3ccccc3)CC2)c(O)cc1O [Example 51, cyclopentyl (2S)-{[2-(1-{[2,4-dihydroxy-5-(propan-2-yl)phenyl]carbonyl}piperidin-4-yl)ethyl]amino}(phenyl)ethanoate]	< 100	100 to 1000	
CC(C)c1cc(C(=O)N2CCC(N[C@H](C(=O)OC3CCCC3)C3CCCCC3)CC2)c(O)cc1O [Example 14, cyclopentyl (2S)-cyclohexyl[(1-{[2,4-dihydroxy-5-(propan-2-yl)phenyl]carbonyl}piperidin-4-yl)amino]ethanoate]	100 to 1000	> 1000	
CC(C)c1cc(C(=O)N2CCC(CN[C@@H](Cc3ccccc3)C(=O)OC(C)(C)C)CC2)c(O)cc1O [Example 25, tert-butyl N-[(1-{[2,4-dihydroxy-5-(propan-2-yl)phenyl]carbonyl}piperidin-4-yl)methyl]-L-phenylalaninate]	< 100	> 1000	
CC(C)C[C@@H](NC1CCN(C(=O)c2cc(C(C)C)c(O)cc2O)CC1)C(=O)OC1CCCC1 [Example 12, cyclopentyl N-(1-{[2,4-dihydroxy-5-(propan-2-yl)phenyl]carbonyl}piperidin-4-yl)-D-leucinate]	< 100	> 1000	
